For `COC(=O)c1ccc(C(=O)N2CCN(c3ncccc3NC(C)C)CC2)cc1`, which melting point is on record?
Its melting point is 116 to 118 °C.

Which melting point does the source give for `C=C1CC1(c1ccc(OC)cc1)c1ccc(OC)cc1` here?
The melting point was 31 to 32 °C.

With `CCCc1nn(C)c2c(=O)[nH]c(Cc3ccc(NC=O)cc3)nc12` as the molecule, how does the melting point read?
The melting point was 260 to 261 °C.

Which melting point does the source give for `COc1cc(N)c(Cl)cc1C(=O)NCCN1CCC(n2c(=O)[nH]c3ccccc32)CC1` here?
The melting point was 230 °C.

For `N#Cc1cc(F)c(Cl)c(Br)c1Cl`, which melting point is on record?
Its melting point is 110 to 112 °C.

Which melting point does the source give for `CC(C)(C)c1nc2cc(N3CCOCC3)c(N)cc2s1` here?
Its melting point is 158 to 159 °C.

Which melting point does the source give for `CCCCCCCCn1c2cc(OC)ccc2c2ccc(OC)cc21` here?
The melting point was 63 to 64 °C.

Which melting point does the source give for `C[Si](C)(C)c1ccc2cc(C(=O)Nc3cnc4sc(CO)nc4c3)n(Cc3nccs3)c2c1` here?
The melting point was 219 to 220 °C.

For `CSc1nnc(-c2ccco2)s1`, which melting point is on record?
The melting point was 128 °C.

Which melting point does the source give for `CC(C)(C)OC(=O)N[C@@H](Cc1ccccc1)c1nc2c(C(F)(F)F)cccc2c(=O)o1` here?
The melting point was 145 °C.

With `C[C@H](NC(=O)OCc1ccccc1)C(=O)N1CCC[C@H]1C(=O)Nc1ccccc1` as the molecule, how does the melting point read?
Its melting point is 138 to 139 °C.

For `CCN1C(=O)C(O)=C(c2c(C)cc(C)cc2C)C1=O`, which melting point is on record?
The melting point was 168 °C.

With `CN1CCCC2CCCC(N(C)C(=O)Cc3ccc(Cl)c(Cl)c3)C21` (stereo not given) as the molecule, how does the melting point read?
Its melting point is 92 °C.

With `COc1ccc2[nH]c3c(c2c1)CCC(NC(C)=O)C3` (stereo not given) as the molecule, how does the melting point read?
The melting point was 191 to 193 °C.

For `CCCCCCCCCCCCCCCCC12CCC3=C(CCc4cc(OC)ccc43)C1CCC2=O` (stereo not given), which melting point is on record?
Its melting point is 54 to 56 °C.

Which melting point does the source give for `CCCc1c(C(C)C)nc(C(C)C)c(CO)c1-c1ccc(F)cc1O` here?
Its melting point is 138 to 141 °C.

With `Nc1cccc2c1CN(c1nc3c(cc1F)c(=O)c(C(=O)O)cn3C1CC1)C2` as the molecule, how does the melting point read?
The melting point was greater than 300 °C.

For `O=C(CCC#Cc1ccccn1)Nc1ccccc1F`, which melting point is on record?
Its melting point is 82 to 84 °C.

Which melting point does the source give for `COc1ccc(-c2nc(CCBr)nc3cc(OC)c(OC)cc23)cc1OC` here?
Its melting point is 166 to 167 °C.

With `CNC1(C)CN(c2nc3c(cc2F)c(=O)c(C(=O)O)cn3C(C)(C)C)C1` as the molecule, how does the melting point read?
The melting point was greater than 300 °C.

For `NS(=O)(=O)Oc1ccc(C(c2ccc(OS(N)(=O)=O)c(Br)c2)n2cncn2)cc1Br`, which melting point is on record?
Its melting point is 98 to 102 °C.

Which melting point does the source give for `CCN1CC(OCC2CC2)(C(F)(F)F)c2cc(F)ccc2NC1=O` (stereo not given) here?
The melting point was 156 °C.

For `NCCc1c[nH]c2ccc(OCCCCc3ccccc3)cc12`, which melting point is on record?
The melting point was 130 to 132 °C.

With `ClCCCc1nc2ccccn2n1` as the molecule, how does the melting point read?
Its melting point is 56.5 to 57 °C.

With `O=S(=O)(OCC1OC2CC(CC(OS(=O)(=O)c3ccc(Br)cc3)C2)O1)c1ccc(Br)cc1` (stereo not given) as the molecule, how does the melting point read?
The melting point was 128 °C.

For `O=C(c1ccccc1)c1ccc2nc(Br)c(C(F)(F)F)nc2c1`, which melting point is on record?
The melting point was 124 to 126 °C.

Which melting point does the source give for `O=C(NCc1cn(-c2ccc(N3CCOCC3)c(F)c2)nn1)C(Cl)Cl` here?
Its melting point is 190 °C.

For `COc1ccc(S(=O)(=O)Nc2ccccc2NC(=S)c2ccc(F)cc2)cc1`, which melting point is on record?
The melting point was 155 to 156 °C.

Which melting point does the source give for `COc1ccc(-c2nnc3c4ccccc4c(OCCO)nn23)cc1` here?
The melting point was 252 to 254 °C.

With `CCCOc1ccccc1-c1nc2nc(N)ncc2c(=O)[nH]1` as the molecule, how does the melting point read?
Its melting point is 261 to 262 °C.

For `O=C(N[C@@H](CN1CCC(=C2c3ccccc3C=Cc3ccccc32)CC1)C(=O)O)OCc1ccccc1`, which melting point is on record?
Its melting point is 178 to 179 °C.

With `N=C(N)c1ccc2ncn(CC(=O)N3CCC(Cc4ccccc4)CC3)c2c1` as the molecule, how does the melting point read?
Its melting point is 68 to 70 °C.

With `CCCN(Cc1ccc(-c2ccccc2C2=NC(C)(C)CO2)cc1)C(c1ccccc1)(c1ccccc1)c1ccccc1` as the molecule, how does the melting point read?
The melting point was 151 to 153 °C.

For `CC(C)(C)OC(=O)C=Cc1ccc2ccccc2n1`, which melting point is on record?
The melting point was 96 to 97 °C.

Which melting point does the source give for `COC(=O)c1cccc(Cl)c1N` here?
The melting point was 36 °C.

For `Cc1cc2cnnc(Cl)c2n1Cc1ccccc1`, which melting point is on record?
The melting point was 152 to 156 °C.

For `CCCCOc1cc(Cl)c(OCCCC)cc1N`, which melting point is on record?
The melting point was 43 to 44 °C.

For `CCC(CC)c1nn(-c2ccc(Br)cn2)cc1CCCOc1c(C)cccc1CC(=O)O`, which melting point is on record?
Its melting point is 120 to 121 °C.

Which melting point does the source give for `CC[C@@]1(CC(=O)NCc2ccccc2)CCCN2CCc3c([nH]c4ccccc34)[C@@H]21` here?
The melting point was 179 to 180 °C.

For `C[Si](Cn1nc[nH]c1=S)(c1ccccc1F)c1ccccc1F`, which melting point is on record?
The melting point was 105 °C.

With `O=C(O)C1SC(C23CC4CC(CC(C4)C2)C3)=NN1C(=O)CCS` (stereo not given) as the molecule, how does the melting point read?
Its melting point is 183 to 184 °C.

For `Nc1nc(-c2ccncc2)nc2[nH]c(S)nc12`, which melting point is on record?
The melting point was greater than 330 °C.

For `NC(=O)CCC(C(=O)O)N1C(=O)c2cccc(N)c2C1=O` (stereo not given), which melting point is on record?
The melting point was 165 to 167 °C.

With `O=C(O)CC(O)(Cn1cncn1)c1ccc(F)cc1F` (stereo not given) as the molecule, how does the melting point read?
The melting point was 185 to 187 °C.

Which melting point does the source give for `COC(=O)C(C)(C)Nc1ncc(I)cc1[N+](=O)[O-]` here?
Its melting point is 121 to 122 °C.

With `CCN(CC)CCOC(=O)c1ccc(/C=C(\C)c2ccc3c(c2)C(C)(C)CCC3(C)C)cc1` as the molecule, how does the melting point read?
Its melting point is 65 to 66 °C.

With `CS(=O)(=O)OC1CCN(c2ccc(N)cc2)C1` (stereo not given) as the molecule, how does the melting point read?
Its melting point is 203 °C.

With `CC(=O)NCC(=O)N(C)c1ccc(Cl)c(COc2cccn3c(Br)c(C)nc23)c1Cl` as the molecule, how does the melting point read?
Its melting point is 187 to 189 °C.

With `C=CCn1c(CSC#N)nc2ccccc2c1=O` as the molecule, how does the melting point read?
Its melting point is 73 to 76 °C.

With `CC1(C)CCc2cc(O)c(O)cc2C1=O` as the molecule, how does the melting point read?
The melting point was 163 to 165 °C.

From a melting point compilation (Tetko et al.; mined from patent text by program, amines drawn as free bases though some values may be those of a salt)
